Patent US6335337B1, “Substituted piperazinones and their therapeutic uses” (Laboratoire L. Lafon, priority 1998, dated 2002)
Structures can show the parent of a compound that is named as a salt.

What was measured:
Guinea Pig Platelets = assay: In vitro inhibition of collagen-induced platelet aggregation, guinea pig platelet-rich plasma; format: cell-based; details: guinea pig PRP, collagen 1 μg/ml, 3 minutes of contact at 37° C.
Description: A study of the inhibitory activity of the compounds of formula (I) on platelet aggregation was carried out in vitro, i.e. by direct contact of solutions of variable concentrations of the compounds with platelets freshly separated from a sample of total blood, taken under standardized conditions, from laboratory animals (guinea pigs) and from healthy human subjects who have not received any substances or drugs that might interfere with blood clotting. The anti-platelet-aggregating activity was also studied ex vivo/vitro, i.e. after administration of the substances claimed to guinea pigs to measure the intensity and duration of the anti-aggregating action induced by the fraction of the test product absorbed and circulating in the blood.
Blood is taken by intracardiac puncture from male Dunkin-Hartley guinea pigs (weighing about 330 g), at a rate of 4.5 ml per 0.5 ml of trisodium citrate (concentration of the aqueous solution: 1.55%;) in order to prevent all trace of clotting. The platelet-rich plasma (PRP) is obtained by centrifuging the tubes of total blood for 15 minutes at 150 g.
The PRPs are collected as “pools”. The platelets contained in these pools are counted using a Coulter ZM haematology automatic device: if necessary, a dilution is carried out in order for the platelet concentration in the plasma to be between 200000 and 400000 platelets/mm^3. Simultaneously, other samples of these pools serve to prepare the platelet-poor plasma (PPP) by centrifugation at 1500 g for 15 minutes.
The kinetic study of the platelet aggregation is carried out by adding a collagen solution (1 μg/ml) to a volume of PRP, using a Chrono-log Corporation aggregometer (490-D1, or 560 VS) which uses an optical detection of the appearance of the thrombus.
The determination of the 50%; inhibitory concentration (IC50) is carried out by adding a given volume of solvent (control reference) and increasing concentrations: 1.5×10^−8 M, 7×10^−8 M, 1.5×10^−7 M, 3×10^−7 M, 7×10^−7 M, 1.5×10^−6 M and […], of the compounds to samples of the pools of PRP. The measurements of the aggregation inhibition are carried out after 3 minutes of contact at 37° C. with agitation.

Human Platelets = assay: In vitro inhibition of collagen-induced platelet aggregation, human platelet-rich plasma; format: cell-based; details: 0.05 h, human PRP, collagen 5 μg/ml, 3 minutes of contact at 37° C., read-out: IC50(M) in vitro Man
Description: A study of the inhibitory activity of the compounds of formula (I) on platelet aggregation was carried out in vitro, i.e. by direct contact of solutions of variable concentrations of the compounds with platelets freshly separated from a sample of total blood, taken under standardized conditions, from laboratory animals (guinea pigs) and from healthy human subjects who have not received any substances or drugs that might interfere with blood clotting. The anti-platelet-aggregating activity was also studied ex vivo/vitro, i.e. after administration of the substances claimed to guinea pigs to measure the intensity and duration of the anti-aggregating action induced by the fraction of the test product absorbed and circulating in the blood. Venous blood is taken from a group of ten healthy human subjects of the same age, by puncture into a vein of the fold of the elbow and is collected in a glass tube containing aqueous 0.129 M sodium citrate solution (1 volume of citrate solution per 9 volumes of blood). Each tube is then centrifuged a first time at 20° C. and 100 g for 15 minutes in order to obtain the platelet-rich plasma (PRP); after removing this PRP, the tube is again centrifuged at 2000 g for 15 minutes in order this time to remove the platelet-poor plasma (PPP). For each identified sample of PRP, the platelets are counted using a Coulter ZM counter. Each sample is then used to study the variation in inhibition of the platelet aggregation triggered by the addition of a Chromo-par-Reagent collagen glucose solution from Coultronics (used at a concentration of 5 μg/ml) as a function of the addition of increasing concentrations of each compound in a range covering the interval 10^-8 M→10^-5 M, (example of concentrations: 10^-8 […]). Beforehand, for each compound, an aqueous 10^-3 M solution is prepared. A control test intended to check the possible effect of the solvents (reference value) on the platelet aggregation is introduced into each measurement series, and the aggregation is measured after 3 minutes of contact at 37° C. with agitation. From the percentages of inhibition of the platelet aggregation measured for each concentration of each compound, the 50%; inhibitory concentration (IC50) is calculated.

[1] = Cavia porcellus, Platelet, 0.05 h

IC50 (Guinea Pig Platelets; [1]) [nM]	IC50 (Human Platelets) [M]	SMILES	IC50 (Guinea Pig Platelets) [nM]
110	1e-05	CCOC(=O)[C@H](CNC(=O)CN1CCN(c2ccc(C(=N)N)cc2)CC1=O)NS(=O)(=O)c1ccccc1 [Example 17, ethyl (2S)-3-{[2-(4-{4-[amino(imino)methyl]phenyl}-2-oxopiperazino)acetyl]amino}-2-[(phenylsulphonyl)amino]propanoate acetate]	
910	3.2e-05	CCOC(=O)[C@H](CNC(=O)CN1CCN(c2ccc(C(=N)N)cc2)CC1=O)NS(=O)(=O)c1cccnc1 [Example 18, Ethyl (2S)-3-{[2-(4-{4-[amino(imino)methyl]phenyl}-2-oxopiperazino)acetyl]amino}-2-[(3-pyridylsulphonyl)amino]propanoate diacetate]	
250	8.2e-06	CCOC(=O)[C@H](CNC(=O)CN1CCN(c2ccc(C(=N)N)cc2)CC1=O)NS(=O)(=O)c1cccc2c1NCCC2 [Example 19, Ethyl (2S)-3-{[2-(4-{4-[amino(imino)methyl]phenyl}-2-oxopiperazino)acetyl]amino}-2-[(1,2,3,4-tetrahydro-8-quinolinylsulphonyl)amino]propanoate acetate]	
420	1.8e-05	CCOC(=O)[C@H](CNC(=O)CN1CCN(c2ccc(C(=N)N)cc2)CC1=O)NS(=O)(=O)c1ccc(C)cc1 [Example 23, Ethyl (2S)-3-{[2-(4-{4-[amino(imino)methyl]phenyl}-2-oxopiperazino)acetyl]amino}-2-{[4-toluenesulphonyl]amino}propanoate acetate]	
320	9.3e-06	CCOC(=O)[C@H](CNC(=O)CN1CCN(c2ccc(C(=N)N)cc2)CC1=O)NS(=O)(=O)c1ccc(Cl)cc1 [Example 24, Ethyl (2S)-3-{[2-(4-{4-[amino(imino)methyl]phenyl}-2-oxopiperazino)acetyl]amino}-2-{[(4-chlorophenyl)sulphonyl]amino}propanoate acetate]	
200	9.5e-05	CCOC(=O)[C@H](CNC(=O)CN1CCN(c2ccc(C(=N)N)cc2)CC1=O)NS(=O)(=O)c1ccc2ccccc2c1 [Example 25, Ethyl (2S)-3-{[2-(4-{4-[amino(imino)methyl]phenyl}-2-oxopiperazino)acetyl]amino}-2-[(2-naphthylsulphonyl)amino]propanoate acetate]	
1800	5.3e-06	CCOC(=O)[C@H](CNC(=O)CN1CCN(c2ccc(C(=N)N)cc2)C(=O)C1)NS(=O)(=O)c1ccccc1 [Example 29, Ethyl (2S)-3-{[2-(4-{4-[amino(imino)methyl]phenyl}-3-oxopiperazino)acetyl]amino}-2-[(phenylsulphonyl)amino]propanoate acetate]	
94	1.2e-07	N=C(N)c1ccc(N2CCN(CC(=O)NC[C@H](NS(=O)(=O)c3ccccc3)C(=O)O)C(=O)C2)cc1 [Example 30, (2S)-3-{[2-(4-{4-[amino(imino)methyl]phenyl}-2-oxopiperazino)acetyl]amino}-2-[(phenylsulphonyl)amino]propanoic acid hydrochloride]	
310	3.4e-07	Cc1ccc(S(=O)(=O)N[C@@H](CNC(=O)CN2CCN(c3ccc(C(=N)N)cc3)CC2=O)C(=O)O)cc1 [Example 31, (2S)-3-{[2-(4-{4-[Amino(imino)methyl]phenyl}-2-oxopiperazino)acetyl]amino}-2-{[4-toluenesulphonyl]amino}propanoic acid hydrochloride]	
		CCOC(=O)[C@H](CNC(=O)CN1CCN(c2ccc(C(=N)N3CCOCC3)cc2)CC1=O)NS(=O)(=O)c1ccc(C)cc1 [Example 40]	1000
1600		CCOC(=O)[C@H](CNC(=O)CN1CCN(c2ccc(C(=N)N3CCCCC3)cc2)CC1=O)NS(=O)(=O)c1ccc(C)cc1 [Example 41, Ethyl (2S)-3-{[2-(4-{4-[imino(piperidino)methyl]phenyl}-2-oxopiperazino)acetyl]amino}-2-{[4-toluenesulphonyl]amino}propanoate]	

SMILES	IC50 (Guinea Pig Platelets; [1]) [nM]	IC50 (Human Platelets) [M]	IC50 (Guinea Pig Platelets) [nM]
CCOC(=O)[C@H](CNC(=O)CN1CCN(c2ccc(C(=N)N)cc2)CC1=O)NC(=O)OCC(C)C [Example 26, Ethyl (2S)-3-{[2-(4-{4-[amino(imino)methyl]phenyl}-2-oxopiperazino)acetyl]amino}-2-[(isobutoxycarbonyl)amino]propanoate acetate]	400	5.7e-06	
